Values of other authors as cited in patent publication US20050042268A1, “Pharmaceutical composition and method for transdermal drug delivery” (priority 2003, published 2005).

C[C@]12CC[C@H]3[C@@H](CCC4=CC(=O)CC[C@@]43C)[C@@H]1CC[C@@H]2O [testosterone]
free testosterone as part of the total concentration in the blood: 4 to 8% | testosterone in the blood bound to protein: Over 90%
